Test results published in US8389530B2, “Substituted quinazoline compounds” (Fovea Pharmaceuticals, priority 2008, dated 2013).
Converted amounts (≈) assume the structure as drawn. Like-named read-outs stand apart in the source and are kept apart here.

How the values were obtained:
[1] = Solubility in aqueous buffer at pH 5 (HPLC/UV); assay type: physicochemical; conditions: acetic acid/KOH buffer pH 5, stirred 24 h at room temperature; for solubility at 24 h: acetic acid/KOH buffer, pH 5, aqueous buffer, thermodynamic from solid
Protocol: Solubility of Compounds was determined in aqueous medium using the following procedure.
Two mg of Compound was added to 200 μl buffer (acetic acid/KOH) solution at pH 5. Solution was then stirred for 24 h at room temperature and then centrifuged 10 min at 16,000 rpm. Corresponding supernatants were analyzed by HPLC and UV detection. Calculation of a given Compound concentration was performed by reporting area under the experimental slope onto a calibration slope obtained separately using DMSO-solubilised Compound at different concentrations.

[2] = Colour of compounds; assay type: physicochemical
[3] = test system: VEGF-induced blood retinal barrier breakdown; assay: Inhibition of vascular leakage in a rat model of VEGF-induced blood-retinal barrier breakdown; assay type: in vivo; conditions: topical 0.51% (5.1 mg/ml) six times over 27 h after intravitreal VEGF, Evans blue
Protocol: We investigated the efficacy of topical administration of compound II of the invention in reducing the retinal leakage in a VEGF-induced blood retinal barrier breakdown in the rat.
Rats were treated by a single intravitreal injection of 5 μl (100 ng) recombinant human VEGF164 (RD Systems) into each eye.
During twenty-seven hours following VEGF injection, 0.51% test compound II of the Invention (5.1 mg/ml buffer pH 5 with 30% cyclodextrin) and control without compound of the Invention were administered six times by topical administration (10 μl) in eyes of sixteen rats.
Twenty-seven hours later after the VEGF challenge, Evans blue dye (45 mg/kg) was injected intravenously and the dye was allowed to circulate during two hours.
Then, each rat was infused with 0.05M citrate buffer pH 3.5 (37° C.) for 2 minutes to allow clearance of the dye. Immediately after said perfusion, both eyes were enucleated and Evans blue dye was extracted by incubating each retina in formamide (Qaum et al Invest. Ophthalmol. Vis. Sci. 2001, Vol 42, No 10). Afterward, the absorbance was measured with a spectrophotometer at 620 nm.
Breakdown of blood-retinal barrier was proportional to the concentration of Evans blue in the retina normalized by Evans blue concentrations in the plasma.

[4] = test system: Src tyrosine kinase; conditions: in vivo; cited from earlier work
[5] = test system: VEGF-induced blood retinal barrier breakdown; assay: Inhibition of vascular leakage in a rabbit model of VEGF-induced blood-retinal barrier breakdown; assay type: in vivo; conditions: topical 3% (30 mg/ml) 4 times daily for four days, 48 h after intravitreal VEGF, ocular fluorophotometry
Protocol: Intravitreal injection of VEGF in the rabbit eye produces massive retinal vascular leakage (Edelman and Lutz, 2003, Invest. Ophthalmol. Vis. Sci. 2003; 44:ARVO e-abstract No. 328). Based on said animal model, we investigated the efficacy of topical administration of compound 7 of the invention in reducing the retinal leakage in a VEGF-induced blood retinal barrier breakdown in the rabbit. During four days, 3% test compound 7 (30 mg/ml, 10% PEG 400, 87% labrafil) or control items without compound of the Invention were administered 4 times daily by topical administration (50 μl) in the right eye of five rabbits. On day two, animals received a single intravitreal injection of 50 μl (500 ng) recombinant human VEGF 165 (RD systems) into right eye. Forty-seven hours after the VEGF challenge (day four), fluorescein was injected via the marginal ear vein and circulate during one hour. Breakdown of the blood-retinal barrier was evaluated 48 h after VEGF challenge by measuring fluorescein contents into the vitreoretinal compartment using non-invasive scanning ocular fluorophotometry.

Q: With `Cc1cccc(C)c1-c1ccc2nc(Nc3ccc(OCCN4CCC[C@@H]4C(=O)O)cc3)ncc2c1` [8 Chlorhydrate, (R)-1-(2-{4-[6-(2,6-Dimethyl-phenyl)-quinazolin-2-ylamino]-phenoxy}-ethyl)-pyrrolidine-2-carboxylic acid] as the molecule, how does the “Solubility (pH 5) in %” value [1] read?
A: 1%

Q: And the “Solubility (pH 5) in mg/ml” value [1]?
A: 10 mg/ml

Q: What about the Colour [2] of the same molecule?
A: Pale yellow

Q: Which “Solubility (pH 5) in %” value ([1]; listed as 8 base form) does the source give for `Cc1cccc(C)c1-c1ccc2nc(Nc3ccc(OCCN4CCC[C@@H]4C(=O)O)cc3)ncc2c1` [compound 8, (R)-1-(2-{4-[6-(2,6-Dimethyl-phenyl)-quinazolin-2-ylamino]-phenoxy}-ethyl)-pyrrolidine-2-carboxylic acid] here?
A: 0.04%

Q: What about the “Solubility (pH 5) in mg/ml” value ([1]; listed as 8 base form) of the same molecule?
A: 0.4 mg/ml

Q: And the Colour ([2]; listed as 8 base form)?
A: Orange

Q: Which results are given for `Cc1cccc(C)c1-c1ccc2nc(Nc3ccc(OCC(=O)N4CC[C@@H](N(C)C)C4)cc3)ncc2c1` [compound 14, 1-((R)-3-Dimethylamino-pyrrolidin-1-yl)-2-{4-[6-(2,6-dimethyl-phenyl)-quinazolin-2-ylamino]-phenoxy}-ethanone]?
A: Solubility (pH 5) in % [1]: 0.01%; solubility at 24 h [1]: 140 µg/mL (≈ 282 µM); Colour [2]: Pale yellow

Q: For `Oc1ccc(Cl)c(-c2ccc3nc(Nc4ccc(OCCN5CCCCCC5)cc4)ncc3c2)c1` [compound 16, 3-{2-[4-(2-Azepan-1-yl-ethoxy)-phenylamino]-quinazolin-6-yl}-4-chloro-phenol], which “Solubility (pH 5) in %” value [1] is on record?
A: 0.05%

Q: What about the solubility at 24 h [1] of the same molecule?
A: 500 µg/mL (≈ 1020 µM)

Q: And the Colour [2]?
A: Pale yellow

Q: Which “reduction of vascular leakage compared to control” value [3] does the source give for `Cc1cccc(C)c1-c1ccc2nc(Nc3ccc(N4CCN(C(=O)c5ccncc5)CC4)cc3)ncc2c1` [compound 11, (4-{4-[6-(2,6-Dimethyl-phenyl)-quinazolin-2-ylamino]-phenyl}-piperazin-1-yl)-pyridin-4-yl-methanone] here?
A: 56%

Q: What does the source list for `Cc1cccc(C)c1-c1ccc2nc(Nc3ccc(N4CCN(CCN5CCCC5)C4=O)cc3)ncc2c1` [9 Chlorhydrate, 1-{4-[6-(2,6-Dimethyl-phenyl)-quinazolin-2-ylamino]-phenyl}-3-(2-pyrrolidin-1-yl-ethyl)-imidazolidin-2-one]?
A: Solubility (pH 5) in % [1]: 0.35%; solubility at 24 h [1]: 3500 µg/mL; Colour [2]: Pale yellow

Q: For `Cc1cccc(C)c1-c1ccc2nc(Nc3ccc(OCCN4CCCC4)cc3)ncc2c1` [6 Chlorhydrate, [6-(2,6-Dimethyl-phenyl)-quinazolin-2-yl]-[4-(2-pyrrolidin-1-yl-ethoxy)-phenyl]-amine], which “Solubility (pH 5) in %” value [1] is on record?
A: 0.09%

Q: What about the solubility at 24 h [1] of the same molecule?
A: 900 µg/mL

Q: What about the Colour [2] of the same molecule?
A: Pale yellow

Q: What does the source list for `Cc1cc(-c2cc(O)ccc2Cl)cc2cnc(Nc3ccc(OCCN4CCCC4)cc3)nc12.Cl` [Compound 18, 1-(2-{4-[6-(2-Chloro-5-hydroxy-phenyl)-8-methyl-quinazolin-2-ylamino]-phenoxy}-ethyl)-pyrrolidinium; chloride]?
A: Solubility (pH 5) in % [1]: 0.67%; solubility at 24 h [1]: 6700 µg/mL; Colour [2]: Pale yellow

Q: Which “Solubility (pH 5) in %” value [1] does the source give for `CN(C)[C@@H]1CCN(C(=O)COc2ccc(Nc3ncc4cc(-c5cc(O)ccc5Cl)ccc4n3)cc2)C1` [13 base form] here?
A: 0.03%

Q: And the “Solubility (pH 5) in mg/ml” value [1]?
A: 0.29 mg/ml

Q: And the Colour [2]?
A: Pale green

Q: Which “Solubility (pH 5) in %” value [1] does the source give for `Oc1ccc(Cl)c(-c2ccc3nc(Nc4ccc(OCCN5CCCC5)cc4)ncc3c2)c1` [7 base form, 4-Chloro-3-{2-[4-(2-pyrrolidin-1-yl-ethoxy)-phenylamino]-quinazolin-6-yl}-phenol] here?
A: 0.03%

Q: What about the solubility at 24 h [1] of the same molecule?
A: 340 µg/mL (≈ 738 µM)

Q: And the Colour [2]?
A: Yellow

Q: With `O=C1N(CCN2CCCC2)CCN1c1ccc(Nc2ncc3cc(-c4cc(O)ccc4Cl)ccc3n2)cc1` [12 Chlorhydrate, 1-{4-[6-(2-Chloro-5-hydroxy-phenyl)-quinazolin-2-ylamino]-phenyl}-3-(2-pyrrolidin-1-yl-ethyl)-imidazolidin-2-one] as the molecule, how does the “Solubility (pH 5) in %” value [1] read?
A: 0.45%

Q: And the solubility at 24 h [1]?
A: 4500 µg/mL

Q: What about the Colour [2] of the same molecule?
A: Pale yellow

Q: Which results are given for `Cc1ccc(-c2nn(C(C)(C)C)c3ncnc(N)c23)cc1` [PP1]?
A: breakdown of the brain-blood barrier (BBB) [4]: decrease breakdown of the brain-blood barrier (BBB); expression of VEGF [4]: reduce expression of VEGF; oedema [4]: decrease oedema

Q: With `Cc1cccc(C)c1-c1ccc2nc(Nc3ccc(N4CCNCC4)cc3)ncc2c1` [compound 17, [6-(2,6-Dimethyl-phenyl)-quinazolin-2-yl]-(4-piperazin-1-yl-phenyl)-amine] as the molecule, how does the “Solubility (pH 5) in %” value [1] read?
A: 0.63%

Q: What about the solubility at 24 h [1] of the same molecule?
A: 6300 µg/mL (≈ 15400 µM)

Q: What about the Colour [2] of the same molecule?
A: brown

Q: For `Cl.Oc1ccc(Cl)c(-c2ccc3nc(Nc4ccc(OCCN5CCCC5)cc4)ncc3c2)c1` [compound 7, 4-Chloro-3-{2-[4-(2-pyrrolidin-1-yl-ethoxy)-phenylamino]-quinazolin-6-yl}-phenol; hydrochloride], which “Solubility (pH 5) in %” value [1] is on record?
A: 0.19%

Q: And the solubility at 24 h [1]?
A: 1900 µg/mL

Q: What about the Colour [2] of the same molecule?
A: Pale yellow

Q: And the “reduction of vascular leakage compared to control” value [5]?
A: 41%
